Data as given in patent publication US20210238225A1, “PEPTIDOMIMETIC INHIBITORS OF THE PEPTIDYL-PROLYL CIS/TRANS ISOMERASE (PIN1)” (DANA-FARBER CANCER INSTITUTE, INC., priority 2018, published 2021).
Where two headings read alike, the source gives them in different places. Non-standard residues stand in square brackets, D forms with d. Residues, ends and D or L forms follow the SMILES beside them. *: point of attachment. Dip = N[C@H](C(=O)O)C(c1ccccc1)c1ccccc1; Phe(4-F) = N[C@@H](Cc1ccc(F)cc1)C(=O)O; 2Nal = N[C@@H](Cc1ccc2ccccc2c1)C(=O)O; X2 = C[C@H]1NC(=O)N[C@H]1CCCCCC(=O)*; Bta = N[C@@H](Cc1csc2ccccc12)C(=O)O; NH(4-Me-benzyl) = Cc1ccc(CN*)cc1; Cit = NC(=O)NCCC[C@H](N)C(=O)O; aThr = C[C@H](O)[C@H](N)C(=O)O; Pip = O=C(O)[C@@H]1CCCCN1; Piperidide = C1CCN(*)CC1; 2Abz = Nc1ccccc1C(=O)O; Acryloyl = C=CC(=O)*; NHtBu = CC(C)(C)N*; X4 = CN(c1ccccc1)*; ClAc = O=C(CCl)*; X1 = O=C(C1CO1)*

Target: Pin1 (GST-Pin1) (Homo sapiens, UniProt Q13526)
Sequence (Q13526 whole entry): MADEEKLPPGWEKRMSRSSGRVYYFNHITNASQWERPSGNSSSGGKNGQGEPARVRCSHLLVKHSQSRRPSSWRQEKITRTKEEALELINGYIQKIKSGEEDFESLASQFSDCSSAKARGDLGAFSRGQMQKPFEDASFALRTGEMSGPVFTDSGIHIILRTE
Assay: Fluorescence polarization (FP) assay, binding to Pin1
Details: competition with fluorescein-labeled peptide probe, 12 hours pre-incubation at 4° C., Kenakin Ki equation

Row | SMILES | Ki (read-out: Ki, μM (FP Assay)) [µM] | Ki (Ki, μM (FP Assay)) [µM]
1 | C=CC(=O)N[C@@H](CCC(=O)O)C(=O)N1CCCC[C@H]1C(=O)N[C@@H](Cc1ccc2ccccc2c1)C(=O)N[C@@H](CCCNC(=N)N)C(N)=O [Compound 2b-16, (S)-4-Acrylamido-5-((S)-2-(((S)-1-(((S)-1-amino-5-guanidino-1-oxopentan-2-yl)amino)-3-(naphthalen-2-yl)-1-oxopropan-2-yl)carbamoyl)piperidin-1-yl)-5-oxopentanoic acid] (Acryloyl-E[Pip][2Nal]R-NH2) | > 10 | –
2 | C=CC(=O)N[C@@H](Cc1ccccc1)C(=O)N1CCCC[C@H]1C(=O)N[C@@H](Cc1c[nH]c2ccccc12)C(=O)N[C@@H](CCCNC(N)=O)C(=O)NCc1ccc(C)cc1 [Compound 11-35, (S)—N—((S)-3-(1H-indol-3-yl)-1-(((S)-1-((4-methylbenzyl)amino)-1-oxo-5-ureidopentan-2-yl)amino)-1-oxopropan-2-yl)-1-(acryloyl-L-phenylalanyl)piperidine-2-carboxamide] (Acryloyl-F[Pip]W[Cit]-{NH(4-Me-benzyl)}) | > 10 | –
3 | COC(=O)CC[C@@H](NC(=O)CCl)C(=O)N1CCCC[C@H]1C(=O)N[C@@H](Cc1c[nH]c2ccccc12)C(=O)N[C@@H](Cc1ccc(F)cc1)C(=O)NCc1ccc(C)cc1 [Compound 11-16, Methyl (R)-4-(2-chloroacetamido)-5-((S)-2-(((S)-1-(((S)-3-(4-fluorophenyl)-1-((4-methyl-benzyl)amino)-1-oxopropan-2-yl)amino)-3-(1H-indol-3-yl)-1-oxopropan-2-yl)carbamoyl)-piperidin-1-yl)-5-oxopentanoate] (ClAc-[dE](OMe)[Pip]W[Phe(4-F)]-{NH(4-Me-benzyl)}) | – | > 10
4 | COC(=O)CC[C@H](NC(C)=O)C(=O)N1CCCC[C@H]1C(=O)N[C@@H](Cc1c[nH]c2ccccc12)C(=O)N[C@@H](Cc1ccc(F)cc1)C(=O)NCc1ccc(C)cc1 [Compound 11-30, Methyl (S)-4-acetamido-5-((S)-2-(((S)-1-(((S)-3-(4-fluorophenyl)-1-((4-methylbenzyl)-amino)-1-oxopropan-2-yl)amino)-3-(1H-indol-3-yl)-1-oxopropan-2-yl)carbamoyl)piperidin-1-yl)-5-oxopentanoate] (Ac-E(OMe)[Pip]W[Phe(4-F)]-{NH(4-Me-benzyl)}) | > 10 | –
5 | O=C(CCl)N[C@@H](Cc1ccccc1)C(=O)N1CCCC[C@H]1C(=O)N[C@@H](Cc1c[nH]c2ccccc12)C(=O)N[C@@H](Cc1ccccc1)C(=O)N1CCCCC1 [Compound 11-41, (S)—N—((S)-3-(1H-Indol-3-yl)-1-oxo-1-(((S)-1-oxo-3-phenyl-1-(piperidin-1-yl)propan-2-yl)amino)propan-2-yl)-1-((2-chloroacetyl)-L-phenylalanyl)piperidine-2-carboxamide] (ClAc-F[Pip]WF-Piperidide) | 0.151 | –
6 | N=C(N)NCCC[C@H](NC(=O)[C@@H](NC(=O)[C@@H]1CCCCN1C(=O)[C@H](CCC(=O)O)NC(=O)CCl)C(c1ccccc1)c1ccccc1)C(N)=O [Compound 2b-10, (S)-5-((S)-2-(((S)-1-(((S)-1-Amino-5-guanidino-1-oxopentan-2-yl)amino)-1-oxo-3,3-diphenylpropan-2-yl)carbamoyl)piperidin-1-yl)-4-(2-chloroacetamido)-5-oxopentanoic acid] (ClAc-E[Pip][Dip]R-NH2) | 0.85 | –
7 | CC(C)(C)NC(=O)[C@H](CCCNC(N)=O)NC(=O)[C@H](Cc1c[nH]c2ccccc12)NC(=O)[C@@H]1CCCCN1C(=O)[C@H](Cc1ccccc1)NC(=O)CCl [Compound 11-31, (S)—N—((S)-1-(((S)-1-(tert-Butylamino)-1-oxo-5-ureidopentan-2-yl)amino)-3-(1H-indol-3-yl)-1-oxopropan-2-yl)-1-((2-chloroacetyl)-L-phenylalanyl)piperidine-2-carboxamide] (ClAc-F[Pip]W[Cit]-NHtBu) | 0.023 | –
8 | NC(=O)[C@H](Cc1c[nH]cn1)NC(=O)[C@H](Cc1ccc2ccccc2c1)NC(=O)[C@@H]1CCCCN1C(=O)[C@H](CCC(=O)O)NC(=O)CCl [Compound 2b-7, (S)-5-((S)-2-(((S)-1-(((S)-1-Amino-3-(1H-imidazol-4-yl)-1-oxopropan-2-yl)amino)-3-(naphthalen-2-yl)-1-oxopropan-2-yl)carbamoyl)piperidin-1-yl)-4-(2-chloroacetamido)-5-oxopentanoic acid] (ClAc-E[Pip][2Nal]H-NH2) | 4.02 | –
9 | COC(=O)CC[C@H](NC(=O)C1CO1)C(=O)N1CCCC[C@H]1C(=O)N[C@@H](Cc1c[nH]c2ccccc12)C(=O)N[C@@H](CCCNC(N)=O)C(=O)NCc1ccc(C)cc1 (stereo partly drawn) [Compound 11-12, Methyl (4S)-5-((S)-2-(((S)-3-(1H-indol-3-yl)-1-(((S)-1-((4-methylbenzyl)amino)-1-oxo-5-ureido-pentan-2-yl)amino)-1-oxopropan-2-yl)carbamoyl)piperidin-1-yl)-4-(oxirane-2-carboxamido)-5-oxopentanoate] (X1-E(OMe)[Pip]W[Cit]-{NH(4-Me-benzyl)}) | > 10 | –
10 | NC(=O)[C@H](Cc1c[nH]c2ccccc12)NC(=O)[C@H](Cc1ccc2ccccc2c1)NC(=O)[C@@H]1CCCCN1C(=O)[C@H](CCC(=O)O)NC(=O)CCl [Compound 2-13, (S)-5-((S)-2-(((S)-1-(((S)-1-Amino-3-(1H-indol-3-yl)-1-oxopropan-2-yl)amino)-3-(naphthalen-2-yl)-1-oxopropan-2-yl)carbamoyl)piperidin-1-yl)-4-(2-chloroacetamido)-5-oxopentanoic acid] (ClAc-E[Pip][2Nal]W-NH2) | 0.13 | –
11 | NC(=O)NCCC[C@H](NC(=O)[C@H](Cc1ccc2ccccc2c1)NC(=O)c1ccccc1NC(=O)[C@H](CCC(=O)O)NC(=O)CCl)C(N)=O [Compound 2-16, (S)-5-((2-(((S)-1-(((S)-1-Amino-1-oxo-5-ureidopentan-2-yl)amino)-3-(naphthalen-2-yl)-1-oxopropan-2-yl)carbamoyl)phenyl)amino)-4-(2-chloroacetamido)-5-oxopentanoic acid] (ClAc-E[2Abz][2Nal][Cit]-NH2) | > 10 | –
12 | C[C@H](O)[C@H](NC(=O)[C@H](Cc1ccc2ccccc2c1)NC(=O)[C@@H]1CCCCN1C(=O)[C@H](CCC(=O)O)NC(=O)CCl)C(N)=O [Compound 2-7, (S)-5-((S)-2-(((S)-1-(((2S,3S)-1-Amino-3-hydroxy-1-oxobutan-2-yl)amino)-3-(naphthalen-2-yl)-1-oxopropan-2-yl)carbamoyl)piperidin-1-yl)-4-(2-chloroacetamido)-5-oxopentanoic acid] (ClAc-E[Pip][2Nal][aThr]-NH2) | 0.3 | –
13 | COC(=O)CC[C@H](NC(=O)CCl)C(=O)N1CCCC[C@H]1C(=O)N[C@@H](Cc1c[nH]c2ccccc12)C(=O)N[C@@H](Cc1ccc(F)cc1)C(=O)N(C)c1ccccc1 [Compound 11-20, Methyl (S)-4-(2-chloroacetamido)-5-((S)-2-(((S)-1-(((S)-3-(4-fluorophenyl)-1-(methyl-(phenyl)amino)-1-oxopropan-2-yl)amino)-3-(1H-indol-3-yl)-1-oxopropan-2-yl)carbamoyl)-piperidin-1-yl)-5-oxopentanoate] (ClAc-E(OMe)[Pip]W[Phe(4-F)]-X4) | – | 0.223
14 | NC(=O)[C@H](CO)NC(=O)[C@H](Cc1ccc2ccccc2c1)NC(=O)[C@@H]1CCCCN1C(=O)[C@H](CCC(=O)O)NC(=O)CCl [Compound 2b-12, (S)-5-((S)-2-(((S)-1-(((S)-1-Amino-3-hydroxy-1-oxopropan-2-yl)amino)-3-(naphthalen-2-yl)-1-oxopropan-2-yl)carbamoyl)piperidin-1-yl)-4-(2-chloroacetamido)-5-oxopentanoic acid] (ClAc-E[Pip][2Nal]S-NH2) | 0.23 | –
15 | NC(=O)NCCC[C@H](NC(=O)[C@H](Cc1ccc2ccccc2c1)NC(=O)[C@@H]1CCCCN1C(=O)[C@H](CCC(=O)O)N1C(=O)C=CC1=O)C(N)=O [Compound 5, (S)-5-((S)-2-(((S)-1-(((S)-1-Amino-1-oxo-5-ureidopentan-2-yl)amino)-3-(naphthalen-2-yl)-1-oxopropan-2-yl)carbamoyl)piperidin-1-yl)-4-(2,5-dioxo-2,5-dihydro-1H-pyrrol-1-yl)-5-oxopentanoic acid] | > 10 | –
16 | NC(=O)CC[C@H](NC(=O)[C@H](Cc1csc2ccccc12)NC(=O)[C@@H]1CCCCN1C(=O)[C@H](CCC(=O)O)NC(=O)CCl)C(N)=O [Compound 2b-8, (S)-5-((S)-2-(((S)-3-(Benzo[6]thiophen-3-yl)-1-(((S)-1,5-diamino-1,5-dioxopentan-2-yl)amino)-1-oxopropan-2-yl)carbamoyl)piperidin-1-yl)-4-(2-chloroacetamido)-5-oxopentanoic acid] (ClAc-E[Pip][Bta]Q-NH2) | 2.83 | –
17 | NC(=O)CC[C@H](NC(=O)[C@H](Cc1ccc2ccccc2c1)NC(=O)[C@@H]1CCCCN1C(=O)[C@H](CC(=O)O)NC(=O)CCl)C(N)=O [Compound 2-2, (S)-3-(2-Chloroacetamido)-4-((S)-2-(((S)-1-(((S)-1,5-diamino-1,5-dioxopentan-2-yl)amino)-3-(naphthalen-2-yl)-1-oxopropan-2-yl)carbamoyl)piperidin-1-yl)-4-oxobutanoic acid] (ClAc-D[Pip][2Nal]Q-NH2) | > 10 | –
18 | C[C@H](NC(=O)[C@H](C)NC(=O)[C@H](CCCNC(N)=O)NC(=O)[C@H](Cc1c[nH]c2ccccc12)NC(=O)[C@@H]1CCCCN1C(=O)[C@H](CCC(=O)O)NC(=O)CCl)C(=O)N[C@@H](CCCCNC(=O)CCCCC[C@@H]1NC(=O)N[C@@H]1C)C(N)=O [Compound 2c-1, (S)-5-((S)-2-(((2S,5S,8S,11S)-14-Carbamoyl-1-(1H-indol-3-yl)-8,11-dimethyl-25-((4S,5R)-5-methyl-2-oxoimidazolidin-4-yl)-3,6,9,12,20-pentaoxo-5-(3-ureidopropyl)-4,7,10,13,19-pentaazapentacosan-2-yl)carbamoyl)piperidin-1-yl)-4-(2-chloroacetamido)-5-oxopentanoic acid] (ClAc-E[Pip]W[Cit]AAK(X2)-NH2) | 0.04 | –
